The test system of one data set is gastric mucosa. Description: gastric mucosal injury induced by ethanol (action of protecting gastric mucosa). It counts as in vivo, Male Sprague-Dawley rats. Particulars: Rattus norvegicus, po; 6 rats per group; doses 3, 10 and 30 mg/kg; 30 min before 1 ml of 100% ethanol; read-out: Action of protecting gastric mucosa ID50. The procedure: As a method of determining the ability to protect gastric mucosa, gastric mocosal injury induced by ethanol [Robert A., Gastroenterology 77, 761 (1979)] is often used. This method was applied to evaluation of the compounds of this invention. Male Sprague-Dawley rats 7-weeks old were fasted for 24 hours. These animals were administered test compounds into the stomach by using a gastric tube. After 30 minutes, 1 ml of 100% ethanol was administered orally. The animals were killed by carbon dioxide gas 60 minutes after ethanol administration. The stomach was removed together with the lower part of esophagus and the duodenum. The esophagus was clipped, 10 ml of 1% formalin solution was instilled into the stomach from the duodenum, and then the duodenum was clipped. The whole stomach was immersed in 1% formalin solution. About 15 minutes later, the stomachs were opened along the greater curvature. Length of the lesions which occurred in the gastric corpus mucosa was measured under a dissecting microscope with a square-grid eye piece (×10). The sum total length of the individual lesions in each animal was measured, and the average value per group was calculated. Based on the difference between the average value of each group and that of the control group, the inhibition rate was determined. The test compound was suspended in a 5% gum arabic solution, and administered in a volume of 2 ml/kg. | administered in a dose of 3, 10 and 30 mg/kg to determine ID50.

The nature of the next data set: oral toxicity in mice. It counts as in vivo. The settings on record: oral administration, 500 mg/kg.

As to `COc1ccnc(C[S+]([O-])c2nc3cc(C(F)(F)F)ccc3[nH]2)c1C` (stereo not shown) [5-CF3, CH3, CH3, H, reference compound], the ED50 with gastric mucosa turned out to be 24 mg/kg.
Same read-out and setting: the result for `COc1ccc2[nH]c([S+]([O-])Cc3ncc(C)c(OC)c3C)nc2c1` (stereo not shown) [5-OCH3, CH3, CH3, CH3, reference compound] reads 22 mg/kg.
On to `COc1ccnc(C[S+]([O-])c2nc3ccccc3[nH]2)c1OC` (stereo not shown) [Example 6, 2-[(3,4-dimethoxypyrid-2-yl)methylsulfinyl]benzimidazole], for which the ED50 with gastric mucosa amounted to 3.2 mg/kg. Moreover, in “oral toxicity in mice”, the fatal effect result is given as “no fatal effect”.
On to `COc1ccnc(C[S+]([O-])c2nc3ccc(C(F)(F)F)cc3[nH]2)c1OC` (stereo not shown) [Example 9, 2-[(3,4-dimethoxypyrid-2-yl)methylsulfinyl]-5-trifluoromethylbenzimidazole], for which, in the data set on gastric mucosa, the ED50 was determined as 3 mg/kg.
For the compound `COc1c(OCC(F)(F)F)ccnc1C[S+]([O-])c1nc2ccccc2[nH]1` (stereo not shown) [Example 18, 2-[[3-methoxy-4-(2,2,2-trifluoroethoxy)pyrid-2-yl]methylsulfinyl]benzimidazole], the ED50 with gastric mucosa came out at 6.2 mg/kg. Also, in “oral toxicity in mice”, the fatal effect result is on record as “no fatal effect”.

Source of the values: patent US4738975A, “Pyridine derivatives, and use as anti-ulcer agents” (Takeda Chemical Industries, Ltd., priority 1985, dated 1988).
